Results: patent US9901079B2, “Inhibition of oncogenic kras-induced GM-CSF production and function” (New York University, priority 2011, dated 2018)

Tested on: GM-CSF expression in Kras^G12D-PDEC
Test: GM-CSF mRNA expression in GFP-Kras^G12D-PDEC after pathway inhibitor treatment (quantitative RT-PCR)
Type: cell-based, mouse
Details: 24 hour treatment; U0126 2 μM, LY294002 10 μM (FIG. 3B)
From the text: Data are presented as an average fold induction over values from GFP-WT-PDEC or normal pancreata. Error bars indicate SD (n=3). […] Error bars indicate SD (n=3). […] Data are presented as an average fold induction over values from normal pancreatic tissue. Error bars indicate SD (n=3). FIG. 3D are photomicrographs showing immunohistochemical staining for GM-CSF protein in representative samples of human pancreatic cancer containing PanIN lesions (i-normal duct from adjacent non-malignant tissue; ii-iii PanIN lesions; iv-invasive PDA). White arrowheads indicate pancreatic duct (i), PanIN (ii and iii), and PDA (iv). Scale bars=50 μm. Extraction and reverse transcription of total RNA from PDECs was performed using RNeasy mini kit (QIAGEN) and QuantiTect reverse transcription kit (QIAGEN), respectively. SYBR Green PCR Master Mix (USB) was used for amplification and the samples were run on the Stratagene Mx 3005P. Expression levels were normalized by GAPDH.

N#CC(=C(/N)Sc1ccccc1N)/C(C#N)=C(\N)Sc1ccccc1N [U0126]
GM-CSF expression in Kras^G12D-PDEC: abrogation of GM-CSF expression
